Measurements from patent US6162811A, “Ellipticine compounds” (Adir et Compagnie, priority 1996, dated 2000).
Structures can show the parent of a compound that is named as a salt. Where two headings read alike, the source gives them in different places.

Key:
[1] = tested on: murine leukaemia P388; test: In vitro cytotoxicity, Microculture Tetrazolium Assay, P388; assay type: cell-based; settings: Mus musculus
Procedure: (§1) A/In Vitro Activity: Cytotoxicity
(§2) Four cell lines were used:
(§3) The cells are distributed onto microplates and exposed to the cytotoxic compounds. The cells are then incubated for 2 days (P388) or 4 days (LLC, KB-A1, KB-3-1).

[2] = tested on: murine lung carcinoma, Lewis Lung Carcinoma (LLC); test: In vitro cytotoxicity, Microculture Tetrazolium Assay, LLC; assay type: cell-based; settings: Mus musculus, 96 h
Procedure: as §1, §2
1 murine lung carcinoma, Lewis Lung Carcinoma (LLC),
as §3

[3] = tested on: human epidermoid carcinoma, KB-3-1; test: In vitro cytotoxicity, Microculture Tetrazolium Assay, KB-3-1; assay type: cell-based
Procedure: as §1, §2, §3

[4] = tested on: KB-A1 (multi-drug resistant line induced by adriamycin); test: In vitro cytotoxicity, Microculture Tetrazolium Assay, KB-A1 (adriamycin-resistant); assay type: cell-based; settings: Homo sapiens
Procedure: as §1, §2
the corresponding resistant line, KB-A1, the multi-drug resistance of which was induced by adriamycin (ADR).
as §3

[5] = tested on: leukaemia P388; test: Anti-tumour activity on leukaemia P388 (i.p.) in female BDF1 mice; assay type: in vivo, murine (female BDF1 mice)
Procedure: 1/Anti-tumour Activity of the Compounds on Leukaemia P388
The line P388 (murine leukaemia) was supplied by the National Cancer Institute (Frederick, USA). The tumour cells (10^6 cells) were injected on day 0 into the peritoneal cavity of female BDF1 mice (Iffa-Credo, France) weighing from 18 to 20 g (groups of 6 or 7 animals).
The products were administered intravenously, at the doses indicated, on day 1 or on days 1, 5 and 9.
The anti-tumour activity is expressed in % T/C: [formula]
The number of animals surviving 60 days (long-term survival) is indicated.
By way of example, Table 2 gives the results obtained with the compound of Example 32 which is especially representative of the invention.

[6] = tested on: human lung carcinoma NCI-H460; test: Anti-tumour activity in an orthotopic model of human lung carcinoma NCI-H460 implanted intrapleurally; assay type: in vivo, human (tumour line, in female Nude Balb/C mice); settings: for toxicity of the dose: dihydrochloride
Procedure: 2/Anti-tumour Activity of the Compounds in an Orthotopic Model of Human Lung Carcinoma NCI-H460 Implanted Intrapleurally
The line NCI-H460, which originates from a human lung carcinoma of "not small cell" type, was supplied by the American Type Culture Collection (Frederick, USA). The cells are cultured in vitro in complete RPMI 1640 medium in Falcon flasks. On the day of the implantation, the cells are separated using trypsin, centrifuged and suspended in complete culture medium. The cells are then implanted in the pleural cavity of female Nude Balb/C mice (10^6 cells per mouse). The products are administered i.v. to groups of 6 animals on days 7 and 14 at the doses indicated. The anti-tumour activity is expressed in % T/C as defined above.
Table 3 lists the results obtained with the compound of Example 3 of the present Application (especially representative of the invention) and with the closest compound of the prior art as reference product.

[7] = 48 h, P388, 2 days incubation, read-out: IC50
[8] = LLC, 4 days incubation, read-out: IC50
[9] = 96 h, KB-3-1, 4 days incubation, read-out: IC50
[10] = 96 h, KB-A1, 4 days incubation, read-out: IC50
[11] = i.v. on days 7 and 14, 56.5 mg/kg
[12] = i.v. on days 7 and 14, 80 mg/kg
[13] = i.v. on days 7 and 14, 113 mg/kg

## CC(=O)Oc1ccc2c(c1)c1cc3c(C(=O)NCCN(C)C)nccc3c(C)c1n2C [Example 2, 1-[(2-Dimethylaminoethyl)aminocarbonyl]-5,6-dimethyl-9-acetoxy-6H-pyrido-[4,3-b]carbazole]
[1]; [7]
  IC50: 0.0058 µM
[2]; [8]
  IC50: 0.0135 µM
[3]; [9]
  IC50: 0.0361 µM
[4]; [10]
  IC50: 0.758 µM

## Cc1c2ccnc(C(=O)NCCN(C)C)c2cc2c3cc(OC(=O)CCCCC(=O)O)ccc3n(C)c12 [Example 32, 1-[(2-Dimethylaminoethyl)aminocarbonyl]-5,6-dimethyl-9-(5-carboxypentanoyloxy)-6H-pyrido[4,3-b]carbazole]
[1]; [7]
  IC50: 0.0051 µM
[2]; [8]
  IC50: 0.0035 µM
[3]; [9]
  IC50: 0.0406 µM
[4]; [10]
  IC50: 0.758 µM
[5]; even at a very high dose, i.v.
  tolerability: well tolerated
  weight loss and premature death: neither significant weight loss nor premature death
[5]; i.v.
  general toxicity: very low general toxicity
  therapeutic index: excellent therapeutic index
[5]; i.v. on D1, 20 mg/kg
  T/C %: 125%
[5]; i.v. on D1, 40 mg/kg
  T/C %: 154%
[5]; i.v. on D1, 80 mg/kg
  T/C %: 186%
[5]; i.v. on D1, 160 mg/kg
  T/C %: 233%
[5]; i.v. on D1, 240 mg/kg
  T/C %: > 600%
  number of animals surviving 60 days (cured): 4/7
[5]; i.v. on D1, 320 mg/kg
  T/C %: > 600%
  number of animals surviving 60 days (cured): 6/7
[5]; i.v. on D1, 5 and 9, 10 mg/kg
  T/C %: 137%
[5]; i.v. on D1, 5 and 9, 20 mg/kg
  T/C %: 171%
[5]; i.v. on D1, 5 and 9, 40 mg/kg
  T/C %: 236%
[5]; i.v. on D1, 5 and 9, 80 mg/kg
  T/C %: > 600%
  number of animals surviving 60 days (cured): 6/7
[5]; i.v. on D1, 5 and 9, 160 mg/kg
  T/C %: > 600%
  number of animals surviving 60 days (cured): 6/7

## Cc1c2ccnc(C(=O)NCCN(C)C)c2cc2c3cc(OC(=O)CCCC(=O)O)ccc3n(C)c12.Cl.Cl [Example 3, 1-[(2-Dimethylaminoethyl)aminocarbonyl]-5,6-dimethyl-9-(4-carboxybutanoyloxy)-6H-pyrido-[4,3-b]carbazole dihydrochloride]
[1]; [7]
  IC50: 0.0071 µM
[2]; [8]
  IC50: 0.0432 µM
[3]; [9]
  IC50: 0.0742 µM
[4]; [10]
  IC50: 0.923 µM
[6]; administered twice at 160 mg/kg i.v.
  increase in survival of the animals: 81%
[6]; even at a strong dose, i.v.
  tolerability: very well tolerated
[6]; i.v.
  therapeutic index: excellent
[6]; i.v. on days 7 and 14
  anti-tumour activity: active
[6]; [11]
  T/C %: 133%
[6]; [12]
  T/C %: 147%
[6]; [13]
  T/C %: 174%
[6]; i.v. on days 7 and 14, 160 mg/kg
  T/C %: 181%

## Cc1c2ccnc(C(=O)NCCN(C)C)c2cc2c3cc(O)ccc3n(C)c12 [Reference product, 1[(2dimethylaminoethyl)aminocarbonyl5,6-dimethyl-9-hydroxy-6H-pyrido-[4,3]carbazoledihydrochloride, reference compound]
[6]; 113 mg/kg i.v., days 7 and 14
  mouse dead during the treatments: 1 mouse
  toxicity of the dose: toxic dose
[6]; 113 mg/kg i.v., days 7 and 14, listed as reference product
  toxicity of the dose: toxic
[6]; i.v. on days 7 and 14, 40 mg/kg
  T/C %: 126%
[6]; [11]
  T/C %: 145%
[6]; [12]
  T/C %: 156%
[6]; [13]
  T/C %: 186%

## COc1cccc2c1C(=O)c1c(O)c3c(c(O)c1C2=O)C[C@@](O)(C(=O)CO)C[C@@H]3O[C@H]1C[C@H](N)[C@H](O)[C@H](C)O1 [ADR, adriamycin, reference compound]
[1]; P388, 48 h
  IC50: 0.0181 µM
[2]
  IC50: 0.0193 µM
[3]; KB 3-1, 96 h
  IC50: 0.0173 µM
[4]; KB-A1, 96 h
  IC50: 6.69 µM
